According to the supplement of paper PMC11208160:

test: recombinant UMI read abundance after kanamycin selection (control-corrected) (log10(CPM+1)); higher = more efficient recombination; extreme values may be limits of the assay; sequences stand for … in AGTGCAGAGAAAATCGGCCAGTTTTCTCTGCCTGCAGTCCGCATGCCGTGGGACCCCTTGGGTTCTAACCTGTTGCCTAGATTTATGCAGCGGACTGCCTTTCTCCCAAAGTGATAAACCGG…AGGTTGGTTTCACT; site = the 11-nt donor
Method: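 Pooled E. coli donor-specificity screen for the IS621 bridge recombinase. Each library member carries a reprogrammed 11-nt donor and a full-length LE bridge RNA expressed in cis from the natural promoter, with a paired donor-binding loop (8-nt LDG + 4-nt RDG) and a target-binding loop fixed to T5. It is co-electroporated with a T5 target plasmid; recombinase is induced with 0.07 mM IPTG and recombinants are selected on kanamycin. UMIs are counted as CPM, averaged over two biological replicates and corrected by the unselected control. Molecule = full bridge RNA written as DNA, built from the T5 scaffold: LDG = donor specificity nt 1-8, RDG = reverse complement of nt 8-11.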
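Note: IS621 bridge recombinase in Escherichia coli cells against a fixed T5 target plasmid.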

| Sequence | recombinant UMI read abundance (log10) |
| --- | --- |
| ACATCTCCATGGACCGGTTTTCCCGGTAATCCGTATTTGTG (site ACATCTTCTCA) | 0.00664 |
| GGTACGTCATGGACCGGTTTTCCCGGTAATCCGTATTTGTT (site GGCACGTCTAA) | 0.0185 |
| AGGAAGACATGGACCGGTTTTCCCGGTAATCCGTATTTGCA (site AGGCCGACTTG) | 0.00452 |
| AGGAAGACATGGACCGGTTTTCCCGGTAATCCGTATTTGCA (site AGGAAGGCTTC) | 0 |
| CCTAAATCATGGACCGGTTTTCCCGGTAATCCGTATTTGAT (site CCTAAAACTAT) | 0 |
| ACATTATCATGGACCGGTTTTCCCGGTAATCCGTATTTGAA (site ACATTATCTTT) | 2.38 |
| CGTGGTACATGGACCGGTTTTCCCGGTAATCCGTATTTGTT (site CGTGGCACTAA) | 0.0912 |
| GTGGAGGCATGGACCGGTTTTCCCGGTAATCCGTATTTGTA (site GTGGAGGCTAA) | 0.557 |
| CTCTACACATGGACCGGTTTTCCCGGTAATCCGTATTTGCT (site CTCCACACTAG) | 2.02 |
| CTAGCAGCATGGACCGGTTTTCCCGGTAATCCGTATTTGCT (site CTAGCAGCTAG) | 1.36 |
| CTCATTTCATGGACCGGTTTTCCCGGTAATCCGTATTTGTG (site CTCATTTCTCA) | 0 |
| GAGGCTACATGGACCGGTTTTCCCGGTAATCCGTATTTGTG (site GAGGCTACTCA) | 1.4 |
| CGATGACCATGGACCGGTTTTCCCGGTAATCCGTATTTGGG (site CGACGACCTCC) | 0.00326 |
| CGTAATACATGGACCGGTTTTCCCGGTAATCCGTATTTGGC (site CATAATACTGC) | 0 |
| CGCGGTCCATGGACCGGTTTTCCCGGTAATCCGTATTTGCA (site CTCGGTCCTTG) | 0 |
| CGGTAGCCATGGACCGGTTTTCCCGGTAATCCGTATTTGTT (site CGGAATCCTAA) | 0.00596 |
| ATAAAGCCATGGACCGGTTTTCCCGGTAATCCGTATTTGAC (site ATAATGCCTGT) | 0 |
| TCGGAACCATGGACCGGTTTTCCCGGTAATCCGTATTTGTA (site TCGGAACCTTA) | 0 |
| ATGGAGACATGGACCGGTTTTCCCGGTAATCCGTATTTGGT (site ATGGAGACTAC) | 1.83 |
| AAGCGCGCATGGACCGGTTTTCCCGGTAATCCGTATTTGGG (site AAGCTCGCTCC) | 0.0124 |
| TCCAATTCATGGACCGGTTTTCCCGGTAATCCGTATTTGGC (site TCCAATTCTGC) | 0 |
| CCCCGGGCATGGACCGGTTTTCCCGGTAATCCGTATTTGGG (site CCCCGGGCTCC) | 0.182 |
| CTCCCTTCATGGACCGGTTTTCCCGGTAATCCGTATTTGAG (site CTCCCTTCTCT) | 0.898 |
| GTCCAAGCATGGACCGGTTTTCCCGGTAATCCGTATTTGAG (site GTCCAAGCTCT) | 0.618 |

| Sequence | recombinant UMI read abundance (log10) |
| --- | --- |
| CACGCCTCATGGACCGGTTTTCCCGGTAATCCGTATTTGCC (site CACTCCTCTGG) | 2.11 |
| TGTGATGCATGGACCGGTTTTCCCGGTAATCCGTATTTGAC (site TGTGATGCTGT) | 1.65 |
| CCCGAAGCATGGACCGGTTTTCCCGGTAATCCGTATTTGTT (site CCCGAAGCTAA) | 1.18 |
| CCGTTAGCATGGACCGGTTTTCCCGGTAATCCGTATTTGTG (site CCGTTATCTCA) | 0 |
| TTCCCTTCATGGACCGGTTTTCCCGGTAATCCGTATTTGTA (site TTCCCTTCTTA) | 0 |
| CAAGCACCATGGACCGGTTTTCCCGGTAATCCGTATTTGTG (site CAAGCCCCTCA) | 0.00553 |
| CCAGATGCATGGACCGGTTTTCCCGGTAATCCGTATTTGAT (site CCAGATGCTAT) | 1.26 |
| CAATCTACATGGACCGGTTTTCCCGGTAATCCGTATTTGTC (site CAATCTACTGA) | 2.28 |
| CGTGGTACATGGACCGGTTTTCCCGGTAATCCGTATTTGTT (site CGTGGGACTAA) | 0 |
| CACTCGGCATGGACCGGTTTTCCCGGTAATCCGTATTTGGA (site CACTAGGCTTC) | 0.232 |
| CGAATGCCATGGACCGGTTTTCCCGGTAATCCGTATTTGAC (site CGAATGCCTGT) | 0.465 |
| CGTGAAACATGGACCGGTTTTCCCGGTAATCCGTATTTGTT (site CGTGTAACTAA) | 0.0209 |
| CGATCTTCATGGACCGGTTTTCCCGGTAATCCGTATTTGCA (site CGATCATCTAG) | 0 |
| CACTACTCATGGACCGGTTTTCCCGGTAATCCGTATTTGTT (site CACTACTCTAA) | 2.71 |
| ACATGATCATGGACCGGTTTTCCCGGTAATCCGTATTTGCA (site ACAGTATCTTG) | 1.14 |
| CGATCGACATGGACCGGTTTTCCCGGTAATCCGTATTTGTG (site CGATCGACTGA) | 0 |
| CTCTACACATGGACCGGTTTTCCCGGTAATCCGTATTTGTT (site CTCTACACTAT) | 0.616 |
| CGGTCATCATGGACCGGTTTTCCCGGTAATCCGTATTTGCT (site CGATCATCTAG) | 1.07 |
| AGGAAGACATGGACCGGTTTTCCCGGTAATCCGTATTTGCA (site AGGACGACTTG) | 0.36 |
| GCGGAGGCATGGACCGGTTTTCCCGGTAATCCGTATTTGTG (site GTGGAGGCTCA) | 0.832 |
| ACCTAGACATGGACCGGTTTTCCCGGTAATCCGTATTTGGT (site ACCTAGACTTC) | 0.0137 |
| AGCTAGACATGGACCGGTTTTCCCGGTAATCCGTATTTGGG (site AACTAGACTCC) | 0.0198 |
| GCGATAACATGGACCGGTTTTCCCGGTAATCCGTATTTGCT (site GCGAAAACTAG) | 0 |
| CCATTCCCATGGACCGGTTTTCCCGGTAATCCGTATTTGAC (site CCATTCCCTGT) | 0 |

| Sequence | recombinant UMI read abundance (log10) |
| --- | --- |
| CTTGTGGCATGGACCGGTTTTCCCGGTAATCCGTATTTGGG (site CTTGTGGCTCC) | 0.00701 |
| GTAATCGCATGGACCGGTTTTCCCGGTAATCCGTATTTGCG (site GTACTCGCTCG) | 0.0396 |
| CCTAATGCATGGACCGGTTTTCCCGGTAATCCGTATTTGAT (site CCTAACGCTAT) | 0.00278 |
| CAAGTCACATGGACCGGTTTTCCCGGTAATCCGTATTTGGC (site CAAGTCACTCC) | 0.402 |
| GACAAAACATGGACCGGTTTTCCCGGTAATCCGTATTTGCG (site GACAAAACTCG) | 1.5 |
| TTTGCTGCATGGACCGGTTTTCCCGGTAATCCGTATTTGCT (site TTTGCTGCTAG) | 0.00917 |
| CATGGAACATGGACCGGTTTTCCCGGTAATCCGTATTTGTT (site CCTGGAACTAA) | 0.00373 |
| GTAGGTACATGGACCGGTTTTCCCGGTAATCCGTATTTGAC (site GGAGGTACTGT) | 0 |
| CAACAGACATGGACCGGTTTTCCCGGTAATCCGTATTTGAA (site CAACAGACTTT) | 1.88 |
| CGAGGTGCATGGACCGGTTTTCCCGGTAATCCGTATTTGAT (site CTAGGTGCTAT) | 1.6 |
| CGGACATCATGGACCGGTTTTCCCGGTAATCCGTATTTGCC (site CGGACATCTCG) | 0.00908 |
| CATAACGCATGGACCGGTTTTCCCGGTAATCCGTATTTGTG (site TGAGGGCCTGC) | 0 |
| CGAGGACCATGGACCGGTTTTCCCGGTAATCCGTATTTGGG (site CTAGGACCTCC) | 0.00778 |
| CAAGTATCATGGACCGGTTTTCCCGGTAATCCGTATTTGTC (site CAAGTATCTGA) | 2.66 |
| AAGGTTACATGGACCGGTTTTCCCGGTAATCCGTATTTGAA (site AAGGTTACTTT) | 2.53 |
| CAGCAGCCATGGACCGGTTTTCCCGGTAATCCGTATTTGGT (site CAGCAGCCTAC) | 0.642 |
| CAGTCGACATGGACCGGTTTTCCCGGTAATCCGTATTTGGG (site CAGTCTACTCC) | 0.0277 |
| GATTTGACATGGACCGGTTTTCCCGGTAATCCGTATTTGAC (site GATTCGACTGT) | 0 |
| CACTCGGCATGGACCGGTTTTCCCGGTAATCCGTATTTGGA (site CACTCGGCTTC) | 1.09 |
| GATCTCACATGGACCGGTTTTCCCGGTAATCCGTATTTGAT (site GAGCTCACTAT) | 0.00697 |
| AGTCCCACATGGACCGGTTTTCCCGGTAATCCGTATTTGAA (site AGTCCCACTTT) | 0.752 |
| AGACGAACATGGACCGGTTTTCCCGGTAATCCGTATTTGTC (site ATACGAACTGA) | 0.731 |
| ACTAGTGCATGGACCGGTTTTCCCGGTAATCCGTATTTGGC (site ACTAGTGCTGC) | 2.6 |
| CCTCCGGCATGGACCGGTTTTCCCGGTAATCCGTATTTGGT (site CCTCCGGCTAC) | 0.0132 |
